Each molecule was assayed on GVIA iPLA2 (Homo sapiens) (assay: Inhibition of human recombinant GVIA iPLA2 using 400 uM Triton X-100/98.3 uM PAPC/1.7 uM 14C-labeled PAPC substrate mixedmicelles at 1 uM).

Question: Which inhibition does the source give for `CCCCCCCCc1ccc(OCC(=O)c2nccs2)cc1` here?
Answer: The inhibition was 67%.

Question: Which inhibition does the source give for `CCCCCCCCCCCCOCC(=O)c1nc(CC(=O)OCC)cs1` here?
Answer: Its inhibition is 91%.

Question: `O=C(COc1ccc(F)cc1)c1nccs1` was tested. Which inhibition did it give?
Answer: Its inhibition is 5%.

Question: For `O=C(COc1ccc(-c2ccccc2)cc1)c1nccs1`, which inhibition is on record?
Answer: Its inhibition is 23%.

Question: Which inhibition does the source give for `O=C(COc1ccccc1)c1nccs1` here?
Answer: The inhibition was 13%.

Question: Which inhibition does the source give for `CCCCCCCCCCCCOCC(=O)c1nc(C(=O)OCC)cs1` here?
Answer: Its inhibition is 92%.

Question: For `CCCCCCCCc1ccc(OCC(=O)c2nc(CC(=O)OCC)cs2)cc1`, which inhibition is on record?
Answer: Its inhibition is 76%.

Question: How did the inhibition turn out when `CCCCCCCCc1ccc(OCC(=O)c2nc3ccccc3s2)cc1` was run?
Answer: Its inhibition is 77%.

Reference: ChEMBL document CHEMBL3352663, “Inhibition of group IVA cytosolic phospholipase A2 by thiazolyl ketones in vitro, ex vivo, and in vivo” (J Med Chem, 2014)
